Experimental data taken from PMC3313936 (PLoS ONE, 2012).
Like-named read-outs stand apart in the source and are kept apart here.

What was measured:
CBM32-5 [1] = target: T1, CBM32-5 (Clostridium perfringens, UniProt A0A0H2YU91); settings: 20 mM Tris-HCl pH 8.0; 20 °C (table; methods say 25 °C)
T1 construct: gene CPF_0859

CBM32-5 [2] = target: T1, CBM32-5; settings: co-crystallised with 10 mM ligand, pH 5.6
CBM32-5 [3] = target: T1, CBM32-5; settings: 20 mM Tris-HCl pH 8.0; 20 °C (table; methods say 25 °C); n fixed at 1
CBM32-5 [4] = target: T1, CBM32-5; settings: glycan immobilised on array; labelled protein
CBM32-3 = target: T2, CBM32-3 (Clostridium perfringens, UniProt A0A0H2YU91); settings: 50 mM HEPES pH 7.5, 25 °C; one-site fit, n fixed at 1
T2 construct: gene CPF_0859

CBM32-4 = target: T3, CBM32-4 (Clostridium perfringens, UniProt A0A0H2YU91); settings: 50 mM HEPES pH 7.5, 25 °C; one-site fit, n fixed at 1
T3 construct: gene CPF_0859

CC(=O)N[C@H]1C(O)O[C@H](CO)[C@H](O)[C@@H]1O[C@@H]1O[C@H](CO)[C@H](O)[C@H](O)[C@H]1O (stereo partly drawn) [Gal-β-1,3-GalNAc]
Ka (M^-1) (CBM32-5 [1]): 3.77 (±0.34)×10^3

CC(=O)N[C@H]1[C@@H](OC[C@H](N)C(=O)O)O[C@H](CO)[C@H](O)[C@@H]1O [Tn antigen, N-acetyl-α-D-galactosaminyl-1-O-serine]
X-ray crystal structure of complex, 1.70 Å (CBM32-5 [2]): 4a44 for CBM32-5 in complex with the Tn Antigen

CC(=O)N[C@H]1C(O)O[C@H](CO)[C@H](O)[C@@H]1O (stereo partly drawn) [D-GalNAc]
Ka (M^-1) (CBM32-5 [1]): 5.01 (±0.64)×10^3

CC(=O)N[C@H]1[C@H](O[C@H]2[C@@H](O)[C@@H](CO)OC(O)[C@@H]2O)O[C@H](CO)[C@H](O)[C@@H]1O (stereo partly drawn) [GalNAc-β-1,3-Gal]
Ka (M^-1) (CBM32-5 [3]): 3.40 (±0.10)×10^3

CC(=O)N[C@H]1[C@@H](O[C@@H]2[C@H](O)[C@@H](O[C@@H]3O[C@@H](C)[C@@H](O)[C@@H](O)[C@@H]3O)[C@H](O[C@H]3[C@H](O)[C@@H](NC(C)=O)C(O)O[C@@H]3CO)O[C@@H]2CO)O[C@H](CO)[C@H](O)[C@@H]1O (stereo partly drawn) [GalNAc-α-1,4(Fuc-α-1,2)-Gal-β-1,4-GlcNAc]
glycan microarray (CBM32-5 [4]): this synthetic carbohydrate was clearly the top ligand from the array analysis

OC[C@H]1O[C@@H](O[C@H]2[C@H](O)[C@@H](O)C(O)O[C@@H]2CO)[C@H](O)[C@@H](O)[C@H]1O (stereo partly drawn) [Lactose]
Ka (M^-1) (CBM32-5 [1]): 2.40 (±0.58)×10^3

CC(=O)N[C@H]1[C@@H](O[C@@H]2[C@H](O)[C@@H](O)C(O)O[C@@H]2CO)O[C@H](CO)[C@@H](O)[C@@H]1O (stereo partly drawn) [GlcNAc-α-1,4-Gal]
association constant (CBM32-3): 2.64 (±0.64)×10^4
association constant (CBM32-4): 1.38 (±0.08)×10^4

OC[C@H]1OC(O)[C@H](O)[C@@H](O)[C@H]1O (stereo partly drawn) [D-galactose]
Ka (M^-1) (CBM32-5 [1]): 1.69 (±0.05)×10^3
